Target: T1, PRMT4 (Homo sapiens, UniProt Q86X55)
T1 construct: purchased Reaction Biology
T1 sequence (Q86X55 1-608): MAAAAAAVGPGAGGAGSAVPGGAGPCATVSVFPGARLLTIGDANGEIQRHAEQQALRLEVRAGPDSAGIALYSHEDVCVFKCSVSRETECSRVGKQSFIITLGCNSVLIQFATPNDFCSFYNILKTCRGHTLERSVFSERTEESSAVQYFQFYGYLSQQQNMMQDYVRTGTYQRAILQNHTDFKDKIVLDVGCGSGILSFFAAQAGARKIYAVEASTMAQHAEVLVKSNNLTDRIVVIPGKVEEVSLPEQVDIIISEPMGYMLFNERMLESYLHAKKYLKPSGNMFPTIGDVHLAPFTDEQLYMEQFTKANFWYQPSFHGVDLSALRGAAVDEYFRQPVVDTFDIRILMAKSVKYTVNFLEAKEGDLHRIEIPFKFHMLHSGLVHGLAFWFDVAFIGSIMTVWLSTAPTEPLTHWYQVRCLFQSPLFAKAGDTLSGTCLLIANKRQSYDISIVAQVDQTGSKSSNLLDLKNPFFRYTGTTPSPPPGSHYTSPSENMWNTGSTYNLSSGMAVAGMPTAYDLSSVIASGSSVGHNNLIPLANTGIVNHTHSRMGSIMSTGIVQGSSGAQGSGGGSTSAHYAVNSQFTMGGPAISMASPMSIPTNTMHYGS
Assay: HotSpot radioisotope 3H-AdoMet methyltransferase assay, PRMT4
Format: biochemical
Settings: IC50 (nM) PRMT4, 10 doses, threefold serial dilution
Experimental: Future studies will focus on obtaining structural information of II757 bound to PRMTs to inform how to connect to a substrate portion to increase both potency and selectivity for each PRMT.
Figure 6 Selectivity of II757 against the panel of PRMTs. II757 was tested in 10 doses with threefold serial dilution in the HotSpot methyltransferase assay at reaction biology. TEXT PRINTED IN THE PICTURE: II757: IC50 (nM) PRMT1: 16.4; IC50 (nM) PRMT3: 321; IC50 (nM) PRMT4: 5.05; IC50 (nM) PRMT5/MEP50 Complex: 18.2; IC50 (nM) PRMT5 (C449S)/MEP50: 36.6; IC50 (nM) PRMT6: 30.5; IC50 (nM) PRMT7: 555; IC50 (nM) PRMT8: 32.1

`N=C(NCCCSC[C@H]1O[C@@H](n2cnc3c(N)ncnc32)[C@H](O)[C@@H]1O)Nc1cccc(Br)c1` [Compound 6l, 1-(3-((((2S,3S,4R,5R)-5-(6-amino-9H-purin-9-yl)-3,4-dihydroxytetrahydrofuran-2-yl)methyl)thio)propyl)-3-(3-bromophenyl)guanidine] was tested, and the IC50 was 5 nM.
